The text below walks through data of US20260365653A1, “IRREVERSIBLE MUTEGFR INHIBITORS” (Bayer Aktiengesellschaft, priority 2022, published 2026).

The subject of one assay is BA/F3 (insSVD) cells. Nature of the assay: Ba/F3-EGFR-insSVD cell survival assay (Cell Titer-Glo). It counts as cell-based. Conditions: Mus musculus, BaF3, 48 h. Put shortly:
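CellTiter-Glo luminescence read after 48 h compound exposure at 37° C. Cells: IL-3-independent Ba/F3 lines transduced with EGFR-insSVD or EGFR-insSVD T790M, maintained on 10 ng/ml EGF and seeded at 4000 per well.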
For orientation: In ATP-based viability assays light output follows the ATP content of the culture.

Assay [1] deals with T1, mutEGFR (D770_N771insSVD) (Homo sapiens, UniProt P00533, DUP768-770).
T1 construct: GST-EGFR #3 (SVD between D770 and N771); made in house; host or cells: Sf9 insect cells (baculovirus)
T1 sequence (P00533 with tags, fused parts or gaps DUP768-770): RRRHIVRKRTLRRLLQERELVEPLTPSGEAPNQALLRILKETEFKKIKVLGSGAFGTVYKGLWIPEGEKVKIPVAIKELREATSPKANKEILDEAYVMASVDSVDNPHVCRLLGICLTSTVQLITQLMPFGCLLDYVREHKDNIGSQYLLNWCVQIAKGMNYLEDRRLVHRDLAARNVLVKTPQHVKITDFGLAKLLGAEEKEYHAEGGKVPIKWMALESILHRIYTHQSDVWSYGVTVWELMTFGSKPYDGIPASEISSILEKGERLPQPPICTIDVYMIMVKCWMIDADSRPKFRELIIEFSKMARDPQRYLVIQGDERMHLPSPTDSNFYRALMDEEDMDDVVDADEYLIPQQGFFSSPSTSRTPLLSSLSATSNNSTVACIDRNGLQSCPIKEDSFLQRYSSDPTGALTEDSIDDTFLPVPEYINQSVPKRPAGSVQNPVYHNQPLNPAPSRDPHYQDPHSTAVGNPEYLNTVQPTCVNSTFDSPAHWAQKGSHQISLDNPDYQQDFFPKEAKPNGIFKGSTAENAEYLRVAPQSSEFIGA
The assay can be described thus: Exon20-Mutant-EGFR (D770_N771insSVD) kinase assay (TR-FRET). It is filed as biochemical. (In general: In TR-FRET formats the signal depends on donor and acceptor labels being close together.)

Assay [2] has as its target T2, mutEGFR (D770_N771insNPG, T790) (Homo sapiens, UniProt P00533, INS770NPG/T790M).
T2 construct: exact insNPG construct not described; in-house EGFR proteins were N-terminal GST fusions from baculovirus/insect cells (borders R669-A1210 given only for WT, insSVD, insASV)
The assay can be described thus: mutEGFR (D770_N771insNPG, T790) kinase assay. It is filed as biochemical. An excerpt: The different EGFR proteins used in the biochemical kinase activity inhibition assays were generated inhouse by expression in insect cells using Baculo Virus system and subsequent purification as described in the following paragraphs.
The cDNAs encoding the various protein sequences from human EGFR human (P00533) were optimized for expression in eukaryotic cells and synthesized by the GeneArt Technology at Life Technologies.

Setting [3] is: Table 3a, cell survival, Cell Titer-Glo, with 10 ng/ml EGF, without IL-3.
[4] abbreviates: mutEGFR (D770_N771insSVD) kinase assay IC50, Table 2a, D770_N771insSVD, 2 mM ATP.

Values joined by “and” are separate entries in the source; they are usually repeats but may differ in a detail not shown here. Equal values may be shown once. A value given as a limit tells only on which side of the number the result lay.

T2 sequence (P00533 with tags, fused parts or gaps INS770NPG/T790M limits assumed): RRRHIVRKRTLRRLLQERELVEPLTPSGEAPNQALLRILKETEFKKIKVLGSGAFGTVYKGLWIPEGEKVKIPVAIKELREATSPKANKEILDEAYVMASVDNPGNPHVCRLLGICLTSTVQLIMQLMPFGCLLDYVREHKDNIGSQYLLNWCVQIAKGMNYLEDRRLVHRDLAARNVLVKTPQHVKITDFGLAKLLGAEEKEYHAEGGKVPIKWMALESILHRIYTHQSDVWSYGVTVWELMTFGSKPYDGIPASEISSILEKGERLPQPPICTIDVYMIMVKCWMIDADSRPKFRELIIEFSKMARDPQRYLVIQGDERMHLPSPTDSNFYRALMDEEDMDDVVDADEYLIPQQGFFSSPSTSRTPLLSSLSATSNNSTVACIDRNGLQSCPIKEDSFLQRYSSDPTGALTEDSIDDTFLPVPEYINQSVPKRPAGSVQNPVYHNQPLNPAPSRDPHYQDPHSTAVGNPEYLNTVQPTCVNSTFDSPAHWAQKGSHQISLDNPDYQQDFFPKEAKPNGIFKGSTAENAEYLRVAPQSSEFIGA

As a reminder, the IC50 is the point on the concentration scale where inhibition reaches its midpoint. A higher IC50 goes with lower potency. Consider `CN(C)C/C=C/C(=O)N1CCn2nc(-c3ccc(Cl)cc3F)c(-c3ccnc4[nH]ccc34)c2C1` [Example 103, (2E)-1-[2-(4-chloro-2-fluorophenyl)-3-(1H-pyrrolo[2,3-b]pyridin-4-yl)-6,7-dihydropyrazolo[1,5-a]pyrazin-5(4H)-yl]-4-(dimethylamino)but-2-en-1-one], for which the IC50 was determined as 122 nM in the assay on BA/F3 (insSVD) cells (setting [3]); 3.7 nM in assay [1] (setting [4]); 25.2 nM in assay [2] (Table 2a, D770_N771insNPG).

For `CCc1cc(-c2nn3c(c2-c2ccncc2)CN(C(=O)/C=C/CN(C)C)CC3)ccc1Cl` [Example 32, formic acid-(2E)-1-[2-(4-chloro-3-ethylphenyl)-3-(pyridin-4-yl)-6,7-dihydropyrazolo[1,5-a]pyrazin-5(4H)-yl]-4-(dimethylamino)but-2-en-1-one (1:1)], the IC50 in the assay on BA/F3 (insSVD) cells (setting [3]) turned out to be 1070 nM; in assay [1] (setting [4]), 1.31 nM; in assay [2] (Table 2a, D770_N771insNPG), 3.89 nM.

Regarding `CN(C)C/C=C/C(=O)N1CCn2nc(-c3ccc4cc[nH]c4c3)c(-c3ccncc3)c2C1` [Example 200, (2E)-4-(dimethylamino)-1-[2-(1H-indol-6-yl)-3-(pyridin-4-yl)-6,7-dihydropyrazolo[1,5-a]pyrazin-5(4H)-yl]but-2-en-1-one], the concentration for half-maximal inhibition (IC50) in the assay on BA/F3 (insSVD) cells (setting [3]) stood at 69 nM; in assay [1] (setting [4]), 0.161 nM; in assay [2] (Table 2a, D770_N771insNPG), 0.317 nM.

Consider `C=CC(=O)N1CCn2nc(-c3ccc(Cl)c(C)c3)c(-c3ccncc3)c2C1` [Example 2, 1-[2-(4-chloro-3-methylphenyl)-3-(pyridin-4-yl)-6,7-dihydropyrazolo[1,5-a]pyrazin-5(4H)-yl]prop-2-en-1-one], for which the half-inhibitory concentration (IC50) in the assay with BA/F3 (insSVD) cells (setting [3]) was 20.6 nM; in the assay with BA/F3 (insSVD) cells (Table 3b, Ba/F3 EGFR-insSVD), 20.6 nM; in assay [1] (setting [4]), 0.105 nM and < 0.0725 nM; in assay [1] (mutEGFR (D770_N771insSVD) kinase assay IC50, Table 2b (from US Priority Patent Application), mutEGFR D770_N771insSVD), < 0.0725 nM and 0.105 nM; in assay [2] (Table 2a, D770_N771insNPG), 0.146 nM; in assay [2] (Table 2b (from US Priority Patent Application), mutEGFR D770_N771insNPG), 0.146 nM.

For `CN(C)C/C=C/C(=O)N1Cc2c(-c3ccncc3)c(-c3ccc(F)cc3)nn2C(C(N)=O)C1` (racemic) [Example 202, (7RS)-5-[(2E)-4-(dimethylamino)but-2-enoyl]-2-(4-fluorophenyl)-3-(pyridin-4-yl)-4,5,6,7-tetrahydropyrazolo[1,5-a]pyrazine-7-carboxamide], the IC50 in the assay on BA/F3 (insSVD) cells (setting [3]) was 9980 nM; in assay [1] (setting [4]), 57.4 nM; in assay [2] (Table 2a, D770_N771insNPG) it was 225 nM.

Turning to `CN(C)C/C=C/C(=O)N1CCn2nc(-c3ccc(C(F)F)cc3)c(-c3ccncc3)c2C1` [Example 148, (2E)-1-{2-[4-(difluoromethyl)phenyl]-3-(pyridin-4-yl)-6,7-dihydropyrazolo[1,5-a]pyrazin-5(4H)-yl}-4-(dimethylamino)but-2-en-1-one], the IC50 amounted to 387 nM in the assay on BA/F3 (insSVD) cells (setting [3]); 1.91 nM in assay [1] (setting [4]); 9.1 nM in assay [2] (Table 2a, D770_N771insNPG).

Consider `C=CC(=O)N1Cc2c(-c3ccncc3)c(-c3ccc(Cl)cc3F)nn2C[C@H]1C` [Example 271, 1-[(6R)-2-(4-chloro-2-fluorophenyl)-6-methyl-3-(pyridin-4-yl)-6,7-dihydropyrazolo[1,5-a]pyrazin-5(4H)-yl]prop-2-en-1-one], for which the IC50 in the assay on BA/F3 (insSVD) cells (setting [3]) came to 225 nM; in assay [1] (setting [4]), 0.132 nM; in assay [2] (Table 2a, D770_N771insNPG), 0.351 nM.

In the case of `C=C(CN1CCOCC1)C(=O)N1CCn2nc(-c3ccc(F)cc3)c(-c3ccncc3)c2C1` [Example 64, 1-[2-(4-fluorophenyl)-3-(pyridin-4-yl)-6,7-dihydropyrazolo[1,5-a]pyrazin-5(4H)-yl]-2-[(morpholin-4-yl)methyl]prop-2-en-1-one], the 50% inhibitory concentration (IC50) in the assay with BA/F3 (insSVD) cells (setting [3]) is 5050 nM; in assay [1] (setting [4]) it was 268 nM; in assay [2] (Table 2a, D770_N771insNPG), 698 nM.

Regarding `C=CC(=O)N1CCn2nc(-c3ccc4c(C)c[nH]c4c3)c(-c3ccncc3)c2C1` [Example 108, 1-[2-(3-methyl-1H-indol-6-yl)-3-(pyridin-4-yl)-6,7-dihydropyrazolo[1,5-a]pyrazin-5(4H)-yl]prop-2-en-1-one], the IC50 in the assay on BA/F3 (insSVD) cells (setting [3]) is 33.3 nM; in assay [1] (setting [4]), 0.351 nM; in assay [2] (Table 2a, D770_N771insNPG), 0.425 nM.

On to `O=C(/C=C/CF)N1CCn2nc(-c3ccc(Cl)cc3F)c(-c3ccncc3)c2C1` [Example 73, (2E)-1-[2-(4-chloro-2-fluorophenyl)-3-(pyridin-4-yl)-6,7-dihydropyrazolo[1,5-a]pyrazin-5(4H)-yl]-4-fluorobut-2-en-1-one], for which the IC50 in the assay with BA/F3 (insSVD) cells (setting [3]) came out at 61 nM; in assay [1] (setting [4]), 1.09 nM; in assay [2] (Table 2a, D770_N771insNPG), 5.1 nM.

`C=CC(=O)N1Cc2c(-c3ccncc3)c(-c3ccc4ccccc4c3)nn2CC1C` (racemic) [Example 232, 1-[(RS)-6-methyl-2-(naphthalen-2-yl)-3-(pyridin-4-yl)-6,7-dihydropyrazolo[1,5-a]pyrazin-5(4H)-yl]prop-2-en-1-one]: the IC50 was 15.5 nM in the assay with BA/F3 (insSVD) cells (setting [3]); 0.116 nM in assay [1] (setting [4]); 0.164 nM in assay [2] (Table 2a, D770_N771insNPG).

For the compound `C=CC(=O)N1CCn2nc(-c3ccc(CC)cc3)c(-c3ccncc3)c2C1` [Example 140, 1-[2-(4-ethylphenyl)-3-(pyridin-4-yl)-6,7-dihydropyrazolo[1,5-a]pyrazin-5(4H)-yl]prop-2-en-1-one], the IC50 in the assay with BA/F3 (insSVD) cells (setting [3]) was determined as 51.4 nM; in assay [1] (setting [4]), 0.812 nM; in assay [2] (Table 2a, D770_N771insNPG), 3.08 nM.

On to `CN1CCN(C/C=C/C(=O)N2CCn3nc(-c4ccc(Cl)cc4)c(-c4ccncc4)c3C2)CC1` [Example 164, (2E)-1-[2-(4-chlorophenyl)-3-(pyridin-4-yl)-6,7-dihydropyrazolo[1,5-a]pyrazin-5(4H)-yl]-4-(4-methylpiperazin-1-yl) but-2-en-1-one], for which the IC50 in the assay with BA/F3 (insSVD) cells (setting [3]) came out at 155 nM; in assay [1] (setting [4]) it was 2.99 nM; in assay [2] (Table 2a, D770_N771insNPG), 9.37 nM.

Turning to `C=CC(=O)N1CCn2nc(-c3cccc4ccoc34)c(-c3ccncc3)c2C1` [Example 107], the IC50 in the assay on BA/F3 (insSVD) cells (setting [3]) was 41.4 nM; in assay [1] (setting [4]), 0.844 nM; in assay [2] (Table 2a, D770_N771insNPG) it was 0.564 nM.

On to `C[C@@H]1Cn2nc(-c3ccc(Cl)cc3)c(-c3ccncc3)c2CN1C(=O)/C=C/CN(C)C` [Example 246, (2E)-1-[(6R)-2-(4-chlorophenyl)-6-methyl-3-(pyridin-4-yl)-6,7-dihydropyrazolo[1,5-a]pyrazin-5(4H)-yl]-4-(dimethylamino)but-2-en-1-one], for which the IC50 turned out to be 33.7 nM in the assay on BA/F3 (insSVD) cells (setting [3]); 0.131 nM in assay [1] (setting [4]); 0.203 nM in assay [2] (Table 2a, D770_N771insNPG).

On to `C=CC(=O)N1Cc2c(-c3ccncc3)c(-c3ccc(F)cc3)nn2CC1(C)C` [Example 210, 1-[2-(4-fluorophenyl)-6,6-dimethyl-3-(pyridin-4-yl)-6,7-dihydropyrazolo[1,5-a]pyrazin-5(4H)-yl]prop-2-en-1-one], for which the IC50 in the assay on BA/F3 (insSVD) cells (setting [3]) came to 551 nM; in assay [1] (setting [4]) it was 25.9 nM; in assay [2] (Table 2a, D770_N771insNPG), 60.4 nM.

Turning to `C=CC(=O)N1CCn2nc(-c3cc(Cl)ccc3F)c(-c3ccnc4[nH]cc(C)c34)c2C1` [Example 180, 1-[2-(5-chloro-2-fluorophenyl)-3-(3-methyl-1H-pyrrolo[2,3-b]pyridin-4-yl)-6,7-dihydropyrazolo[1,5-a]pyrazin-5(4H)-yl]prop-2-en-1-one], the IC50 in the assay on BA/F3 (insSVD) cells (setting [3]) came out at 112 nM; in assay [1] (setting [4]) it was 158 nM; in assay [2] (Table 2a, D770_N771insNPG) it was 61.5 nM.

Take `C=CC(=O)N1Cc2c(-c3ccnc4[nH]cc(C)c34)c(-c3ccc(F)cc3)nn2C[C@H]1C` [Example 263, 1-[(6R)-2-(4-fluorophenyl)-6-methyl-3-(3-methyl-1H-pyrrolo[2,3-b]pyridin-4-yl)-6,7-dihydropyrazolo[1,5-a]pyrazin-5(4H)-yl]prop-2-en-1-one]: the IC50 turned out to be 81 nM with BA/F3 (insSVD) cells (setting [3]); 112 nM in assay [1] (setting [4]); 24.6 nM in assay [2] (Table 2a, D770_N771insNPG).

With `C=CC(=O)N1Cc2c(-c3ccncc3)c(-c3cccc(C#N)c3)nn2C[C@H]1C` [Example 126, 3-[(6R)-6-methyl-5-(prop-2-enoyl)-3-(pyridin-4-yl)-4,5,6,7-tetrahydropyrazolo[1,5-a]pyrazin-2-yl]benzonitrile], the IC50 in the assay on BA/F3 (insSVD) cells (setting [3]) was found to be 86.5 nM; in assay [1] (setting [4]), 12.4 nM; in assay [2] (Table 2a, D770_N771insNPG), 4.52 nM.

Regarding `O=C(/C=C/CN1CCOCC1)N1CCn2nc(-c3ccc(F)cc3)c(-c3ccncc3)c2C1` [Example 63, (2E)-1-[2-(4-fluorophenyl)-3-(pyridin-4-yl)-6,7-dihydropyrazolo[1,5-a]pyrazin-5(4H)-yl]-4-(morpholin-4-yl) but-2-en-1-one], the half-maximal inhibitory concentration (IC50) stood at 221 nM with BA/F3 (insSVD) cells (setting [3]); 2.64 nM in assay [1] (setting [4]); 9 nM in assay [2] (Table 2a, D770_N771insNPG).

Turning to `C=CC(=O)N1CCn2nc(-c3cc4ccccc4cc3F)c(-c3ccncc3)c2C1` [Example 109, 1-[2-(3-fluoronaphthalen-2-yl)-3-(pyridin-4-yl)-6,7-dihydropyrazolo[1,5-a]pyrazin-5(4H)-yl]prop-2-en-1-one], the IC50 with BA/F3 (insSVD) cells (setting [3]) was 42 nM; in assay [1] (setting [4]), 0.111 nM; in assay [2] (Table 2a, D770_N771insNPG) it was 0.149 nM.

Take `Cc1ccc(-c2nn3c(c2-c2ccncc2)CN(C(=O)/C=C/CN(C)C)CC3)cc1` [Example 156, (2E)-4-(dimethylamino)-1-[2-(4-methylphenyl)-3-(pyridin-4-yl)-6,7-dihydropyrazolo[1,5-a]pyrazin-5(4H)-yl]but-2-en-1-one]: the 50% inhibitory concentration (IC50) in the assay with BA/F3 (insSVD) cells (setting [3]) is 98.2 nM; in assay [1] (setting [4]) it was 1.45 nM; in assay [2] (Table 2a, D770_N771insNPG), 4.64 nM.
